Publication PMC6030159 (Scientific Reports, 2018)
Entries after “also recorded” stand apart in the source; their conditions may differ.

Assays:
BCL-XL = test system: T1, BCL-XL; set-up: method as in PMID 23824742; conditions: in vitro fluorescence polarization, BCL-XL:BAK; cited from earlier work
T1 construct: purchased Abcam

[1] = test system: SK-N-DZ MYCN-amplified neuroblastoma xenograft tumors; experiment: SK-N-DZ neuroblastoma xenograft tumor model; type: in vivo, mouse; conditions: 20 mg/kg i.p. daily, 1–2 weeks, vs vehicle
Experimental: The last dose was administered 3 hrs before termination. […]
Immunohistochemistry. Apoptosis was visualized at the single-cell level on tumor cryosections using the TUNEL method using the In Situ Cell Death Detection Fluorescein-Roche kit and analyzed by fluorescence microscopy. Briefly, tumor cryosections were fixed in 4% paraformaldyde (PFA) and the assay was performed following the instructions from the manufacturer. Negative controls were run using the reagent without the TdT enzyme. Samples were mounted using Vectashield mounting medium (Vector) and DAPI was used as nuclear counterstaining. Cell proliferation and microvascular density (MVD) were evaluated through Ki67 and CD31staining, respectively, on tumor cryosections and detected by immunofluoresence. Visualization and image acquisition was done in a Zeiss microscope, and for panoramic views by a Vectra imaging system. For quantification, areas with positive TUNEL and Ki67 staining were measured using Image J software. For the analysis of MVD, the number of vessel structures per microscopic field was calculated.

MYC:MAX = test system: T2, MYC:MAX; experiment: Gaussia luciferase complementation (GLuc) MYC:MAX; type: cell-based, human; conditions: 25 μM, 17 hours, HEK293 cells
T2 construct: fused to full length MYC (MYC-GLuc-C) and MAX (MAX-GLuc-N), respectively; expressed in transfected cells; host or cells: HEK293
Experimental: The protein fragment complementation assay using the Gaussia luciferase has been described. 0.2–0.4 μg of each GLuc-construct (see Supplementary Information) together with 0.05–0.2 μg pCMV-Luc (Firefly luciferase) were transiently transfected into HEK293 or COS-7 cells in 6-well plates. 24 hours later cells were treated with compound (10–25 μM) or DMSO. After another 17 hours, the cells were harvested and lyzed in passive lysis buffer (Promega) supplemented with complete protease inhibitor (Roche). After 60 min incubation at room temperature 20 μM D-luciferin was added (substrate of Firefly luciferase) and luminescence was measured in a Lumat LB9501 (Berthold) or OmegaFluostar (BMG Labtech) luminometer. Directly after, Gaussia luciferase substrate Coelenterazine (Promega) was added to a final concentration of 20 μM in a mixture with “Stop n’ Glow” (Promega) and the luciferase activity was measured. The ratio between Gaussia and Firefly luciferase values were calculated and normalized to DMSO-treated control cells.

hTERT = test system: hTERT; set-up: method as in PMID 23173022; conditions: found artificial, unspecific DNA binding; cited from earlier work
lung tumor = test system: lung tumor; set-up: method as in PMID 23824742; conditions: cited from earlier work
MYCN and MAX proteins = experiment: Western blot of MYCN and MAX in SK-N-DZ and Kelly cells; type: cell-based; conditions: 2.5 µM, 17 hours
Experimental: These assays were performed essentially as described in[67],[68]. […] C) MST of labeled MYC (approximately 200 nM) titrated with MYCMI-6 as indicated. Data are shown as mean ± standard deviation of 5 biological repeats. Supplemental Figure S5. Characterization of the binding of MYCMI-6 and other MYC:MAX inhibitory compounds on MYC and different control proteins by surface plasmon resonance (SPR). All sensorgrams are reference surface subtracted. A) SPR assay of MYCMI-6 injected over immobilized MYC in an equilibrium binding experiment where the theoretical Rmax is 23 RU. B) SPR assay of KJ-Pyr-9 injected over immobilized MYC. Theoretical Rmax is 29 RU. C) Sensorgram of MAX SPR assay. MYCMI-6 was injected at various concentrations over immobilized MAX bHLHZip (theoretical Rmax of 24 RU). D) Sensorgram of MAD SPR assay. MYCMI-6 was injected at various concentrations over immobilized GST-MAD bHLHZip (theoretical Rmax of 24 RU). E) Sensorgram of the BCL-XL SPR assay. MYCMI-6 was injected at various concentrations over immobilized BCL-XL (theoretical Rmax of 14 RU). F) Sensorgram of the BSA SPR assay. MYCMI-6 was injected at various concentrations over immobilized BSA (theoretical Rmax of 5 RU). Supplemental Figure S6. Expression of MYCN and MAX proteins after MYCMI-6 treatment in MYCN-amplified neuroblastoma cells. […]

[2] = test system: MYCN-amplified SK-N-DZ neuroblastoma cells; experiment: Viable/dead cell counting, SK-N-DZ; type: cell-based, human; conditions: 12.5 μM, 24 hours
Experimental: Cell proliferation assays. […]
Fluostar (BMG Labtech) in a 96 well plate format. Cell counting was done in 96 well plates with CellTracker Green (ThermoFisher) for 30 min in the incubator, after which DAPI was added for 5 min. Images were taken in the green (FITC) and blue (DAPI) channels using a fluorescence microscope (ImageXpress Micro, Molecular Devices). […]
0.7% agarose. […]

MAX:MAX = experiment: MST MAX:MAX; type: binding; conditions: labeled MAX pre-mixed with 1 µM unlabeled MAX

Compound: CCOc1ccc2nc3cc(/N=N/c4ccc(N)nc4N)ccc3c(N)c2c1 [MYCMI-6]
- concentration of binding to BCL-XL (BCL-XL): 14 nM
- apoptotic areas in tumors (TUNEL) [1]: dramatic increase
- microvascular density (CD31) [1]: significantly reduced
- non-proliferative areas (Ki67) [1]: significant increase
- tumor histology (H&E) [1]: signs of necrosis and hemorrhage
- MYC:MAX GLuc activity (MYC:MAX): most potent
- IC50 for hTERT relative to MYC:MAX in vitro (hTERT): approximately 10 fold
- lung tumor growth in mouse xenograft model (lung tumor): inhibit lung tumor growth
- expression of MYCN and MAX (western blot) (MYCN and MAX proteins): maintaining the expression
- cell death and cell number, SK-N-DZ [2]: dramatically increased cell death and reduced cell number; also recorded: killed almost 100%
- effect on MAX:MAX (MST) (MAX:MAX): minor effects; also recorded: did not inhibit MAX:MAX homodimerization
